In PMC2813863, “In Vivo Evaluation of α7 Nicotinic Acetylcholine Receptor Agonists [^11C]A-582941 and [^11C]A-844606 in Mice and Conscious Monkeys” (PLoS ONE, 2010):
Several values for one entry are separate records, joined by “and”; a condition that tells them apart may be missing. Equal values may be shown once.

Experiments:
α7 nAChRs [1] = biological target: α7 nAChRs (Mus musculus, UniProt P49582); details: in vivo
Protocol: In the other group of mice, a blocking experiment to determine the α7 nAChRs-specific regional brain uptake of the tracers was carried out. Each tracer (2 MBq/0.055–0.096 nmol) was co-injected with each of the following blockers into mice, and 15 ([^11C]A-582941) or 30 ([^11C]A-844606) min later the mice were killed (n = 5) and the tissue uptake of ^11C was expressed as the %ID/g. […] Each blocker was dissolved in 1N HCl to 40 mg/ml and diluted up to 0.4 mg/ml with saline. The co-injected dose was 1 mg/kg. In the control mice the same amount of 0.01 N HCl in saline was co-injected.

α4β2 = details: human receptor; cited from earlier work
[2] = assay type: in vivo, mice; details: mouse, in vivo, iv
Protocol: Each tracer was intravenously injected into mice, and then the animals were killed by cervical dislocation at 1, 5, 15, 30 and 60 min after injection (n = 4). The body weight of the mice was 34.7±1.2 g. The injected doses of tracers were 2 MBq/0.049–0.051 nmol. Blood was collected by heart puncture and tissues were harvested. The carbon-11 in the samples was counted with an auto-gamma-counter (LKB Wallac Compu-gamma 1282CS, Turku, Finland) and the tissues were weighed. The tissue uptake of carbon-11 was expressed as the %ID/g.

α7 nAChRs [3] = biological target: α7 nAChRs (Macaca mulatta, UniProt Q866A2); details: rhesus monkey, in vivo
From the text: Four young-adult male rhesus monkeys (Macaca mulatta) weighing from 4 to 6 kg were used for PET measurements. The monkeys were trained for the protocol as described previously. The magnetic resonance images (MRI) of all monkeys were obtained with a Toshiba MRT-50A/II (0.5T) under anesthesia with pentobarbital. The stereotactic coordinates of PET and MRI were adjusted based on the orbitomeatal (OM) line with monkeys secured in a specially designed head holder. At least 1 month before the PET study, an acrylic plate, with which the monkey was fixed to the monkey chair, was attached to the head under pentobarbital anesthesia as described previously.
PET data were collected on a high-resolution PET scanner (SHR-7700; Hamamatsu Photonics K.K., Hamamatsu, Japan). The camera consists of 16 detector rings and acquires 20 slices at a center-to-center interval of 3.6 mm with a transaxial resolution of 2.6 mm full width at half maximum. After an overnight fast, the monkey was fixed to the monkey chair with stereotactic coordinates aligned parallel to the OM line. A cannula was implanted in the posterior tibial vein, and [^11C]A-582941 or [^11C]A-844606 (1152–1336 MBq/26.8–63.1 nmol) was injected into the monkey through the venous cannula. PET images were acquired over 91 min (10 sec ×6 frames, 30 sec ×6 frames, 1 min ×12 frames, and 3 min ×25 frames). PET scans were reconstructed using a filtered backprojection method in a 100×100 matrix, with a voxel size of 1.2 mm ×1.2 mm ×3.6 mm. Summed image of late phase (from 70 to 91 min post-injection) was calculated as a static SUV (activity/ml tissue)/(injected activity/g body weight) image. Each MRI was coregistered to an early (from 0 to 20 min) summed image using normalized mutual information, and ROIs were placed on the summed image with reference to the coregistered MRI. Three monkeys underwent [^11C]A-582941 scan morning, and then two of the three monkeys underwent [^11C]A-844606 afternoon (baseline). Within 6 months the last one of the three monkeys underwent two [^11C]A-844606 scans in the baseline (morning) and blocking (afternoon) conditions 30 min after injection of SSR180711 (5.0 mg/kg, i.v.), and the fourth monkey underwent two [^11C]A-582941 scans in the baseline and blocking conditions in the same way.
For the semi-quantitative analysis of PET data, arterial samples were obtained every 8 sec from injection to 64 sec, and then again at 1.5, 2.5, 4, 6, 10, 20, 30, 45, 60, and 90 min after each tracer injection. Blood samples were centrifuged to separate the plasma, weighed, and subjected to radioactivity measurement. For metabolite analysis, methanol was added to some plasma samples, the resulting solutions were centrifuged, and the supernatants were developed with TLC plates (AL SIL G/UV; Whatman, Kent, UK) using a mobile phase of dichloromethane/diethyl ether/ethanol/triethylamine (20/20/2/2, v/v/v/v). At each sampling time point, the ratio of radioactivity in the unmetabolized fraction to that in the total plasma (metabolite plus unmetabolite) was determined using a phosphoimaging plate (BAS-1500 MAC; Fuji Film Co., Tokyo, Japan). The pTACs corrected for metabolite were obtained. The tTACs in each region of interest (ROI) in the brain were calculated as the %ID/ml or as a standardized uptake value (SUV), (activity/ml tissue)/(injected activity/g body weight). Using the tTACs and the metabolite-corrected pTAC, the V T for each tracer was evaluated by Logan graphical analysis.

α7 nAChRs [4] = details: read-out: KD for α-bungarotoxin; cited from earlier work

Sequence of α7 nAChRs (Mus musculus, UniProt P49582) (P49582 23-502): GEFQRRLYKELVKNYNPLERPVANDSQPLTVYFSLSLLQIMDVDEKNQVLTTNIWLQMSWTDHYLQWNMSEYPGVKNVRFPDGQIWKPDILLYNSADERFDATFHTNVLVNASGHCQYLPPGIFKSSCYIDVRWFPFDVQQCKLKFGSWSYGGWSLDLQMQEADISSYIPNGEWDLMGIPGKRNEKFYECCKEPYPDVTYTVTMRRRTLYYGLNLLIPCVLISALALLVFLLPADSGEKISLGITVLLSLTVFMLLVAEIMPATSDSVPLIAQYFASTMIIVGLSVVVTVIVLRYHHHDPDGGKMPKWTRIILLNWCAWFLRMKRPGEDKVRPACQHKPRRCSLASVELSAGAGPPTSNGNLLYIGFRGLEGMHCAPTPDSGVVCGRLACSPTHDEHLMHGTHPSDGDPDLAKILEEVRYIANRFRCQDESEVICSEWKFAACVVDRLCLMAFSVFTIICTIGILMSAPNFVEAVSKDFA
Sequence of α7 nAChRs (Macaca mulatta, UniProt Q866A2) (Q866A2 23-502): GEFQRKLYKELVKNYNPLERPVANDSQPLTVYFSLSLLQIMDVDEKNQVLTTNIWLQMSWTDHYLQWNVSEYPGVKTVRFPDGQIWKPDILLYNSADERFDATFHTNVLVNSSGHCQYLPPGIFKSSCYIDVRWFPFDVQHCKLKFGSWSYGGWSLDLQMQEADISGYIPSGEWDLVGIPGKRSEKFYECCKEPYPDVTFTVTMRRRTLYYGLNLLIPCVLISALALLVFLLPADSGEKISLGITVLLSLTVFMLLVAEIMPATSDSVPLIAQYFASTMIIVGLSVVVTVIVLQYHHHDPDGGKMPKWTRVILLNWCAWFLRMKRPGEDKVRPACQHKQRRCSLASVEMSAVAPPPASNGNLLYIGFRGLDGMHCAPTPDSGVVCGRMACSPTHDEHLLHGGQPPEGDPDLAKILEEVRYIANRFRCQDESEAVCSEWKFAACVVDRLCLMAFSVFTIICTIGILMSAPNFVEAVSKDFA

Compound: O=C(Oc1ccc(Br)cc1)N1CCN2CCC1CC2 [SSR180711]
- % Injected dose/g tissue, Cerebellum (α7 nAChRs [1]): 3.32±0.25 % Injected dose/g tissue and 5.10±0.69 % Injected dose/g tissue
- % Injected dose/g tissue, Cerebral cortex (α7 nAChRs [1]): 5.02±0.46 % Injected dose/g tissue and 8.43±1.07 % Injected dose/g tissue
- % Injected dose/g tissue, Hippocampus (α7 nAChRs [1]): 4.63±0.51 % Injected dose/g tissue and 6.26±0.64 % Injected dose/g tissue
- % Injected dose/g tissue, Hypothalamus (α7 nAChRs [1]): 3.49±0.36 % Injected dose/g tissue and 4.74±0.70 % Injected dose/g tissue
- % Injected dose/g tissue, Medulla oblongata (α7 nAChRs [1]): 3.15±0.14 % Injected dose/g tissue and 5.35±0.33 % Injected dose/g tissue
- % Injected dose/g tissue, Midbrain (α7 nAChRs [1]): 3.91±0.45 % Injected dose/g tissue and 6.69±0.79 % Injected dose/g tissue
- % Injected dose/g tissue, Striatum (α7 nAChRs [1]): 4.19±1.04 % Injected dose/g tissue and 7.32±1.84 % Injected dose/g tissue
- % Injected dose/g tissue, Whole brain (α7 nAChRs [1]): 4.21±0.39 % Injected dose/g tissue and 6.82±0.64 % Injected dose/g tissue
- IC50 (α4β2): > 50000 nM

Compound: [11CH3]N1CC2CN(c3ccc4oc5ccccc5c(=O)c4c3)CC2C1 (stereo not shown) [[^11C]A-844606, 2-(5-[^11C]Methyl-hexahydro-pyrrolo[3,4-c]pyrrol-2-yl)-xanthene-9-one]
- % Injected dose/g tissue, Blood (α7 nAChRs [1]): 0.57±0.11 % Injected dose/g tissue
- % Injected dose/g tissue, Cerebellum (α7 nAChRs [1]): 4.54±0.63 % Injected dose/g tissue
- % Injected dose/g tissue, Cerebral cortex (α7 nAChRs [1]): 7.63±0.98 % Injected dose/g tissue
- % Injected dose/g tissue, Hippocampus (α7 nAChRs [1]): 4.46±0.90 % Injected dose/g tissue
- % Injected dose/g tissue, Hypothalamus (α7 nAChRs [1]): 4.21±1.55 % Injected dose/g tissue
- % Injected dose/g tissue, Medulla oblongata (α7 nAChRs [1]): 5.25±0.95 % Injected dose/g tissue
- % Injected dose/g tissue, Midbrain (α7 nAChRs [1]): 5.43±0.75 % Injected dose/g tissue
- % Injected dose/g tissue, Striatum (α7 nAChRs [1]): 5.01±2.00 % Injected dose/g tissue
- % Injected dose/g tissue, Whole brain (α7 nAChRs [1]): 5.83±0.56 % Injected dose/g tissue
- time of peak radioactivity in the brain [2]: 30 min
- V T Baseline, Cerebellum (α7 nAChRs [3]; male): 95.9 mL/g
- V T Baseline, Frontal cortex (α7 nAChRs [3]; male): 132.2 mL/g
- V T Baseline, Hippocampus (α7 nAChRs [3]; male): 123.1 mL/g
- V T Baseline, Thalamus (α7 nAChRs [3]; male): 141.5 mL/g
- V T SSR180711, Cerebellum (α7 nAChRs [3]; male): 52.8 mL/g
- V T SSR180711, Frontal cortex (α7 nAChRs [3]; male): 65.3 mL/g
- V T SSR180711, Hippocampus (α7 nAChRs [3]; male): 57.5 mL/g
- V T SSR180711, Thalamus (α7 nAChRs [3]; male): 69.3 mL/g
- V T, cerebellum (mean ± SD) (α7 nAChRs [3]; male): 95.2±32.8
- V T, cerebellum (range) (α7 nAChRs [3]; male): 62.1–127.7
- V T, frontal cortex (mean ± SD) (α7 nAChRs [3]; male): 130.9±40.4
- V T, frontal cortex (range) (α7 nAChRs [3]; male): 89.8–170.6
- V T, hippocampus (mean ± SD) (α7 nAChRs [3]; male): 118.5±33.6
- V T, hippocampus (range) (α7 nAChRs [3]; male): 82.9–149.6
- V T, thalamus (mean ± SD) (α7 nAChRs [3]; male): 138.6±42.3
- V T, thalamus (range) (α7 nAChRs [3]; male): 95.0–179.4
- time at which brain radioactivity reached a plateau (α7 nAChRs [3]; male): 40 to 60 min
- time at which radioactivity in the cerebellum reached a plateau (α7 nAChRs [3]; male): 40 min
- % decrease of V T, Cerebellum (α7 nAChRs [3]): 45.0%
- % decrease of V T, Frontal cortex (α7 nAChRs [3]): 50.6%
- % decrease of V T, Hippocampus (α7 nAChRs [3]): 53.3%
- % decrease of V T, Thalamus (α7 nAChRs [3]): 51.0%
- decrease of V T by pretreatment with SSR180711 (α7 nAChRs [3]): ~50%

Compound: α-bungarotoxin
- Kd (α7 nAChRs [4]): 1.67 nM
